Assay results as given in ChEMBL document CHEMBL1133194, “Synthesis and bioactivities of novel piperidylpyrimidine derivatives: inhibitors of tumor necrosis factor-alpha production” (Bioorg Med Chem Lett, 2000).

Species on record: Mus musculus
Test: Ability to inhibit tumor necrosis factor-alpha (TNF-alpha) production in mouse macrophages stimulated with LPS
Assay type: functional

Row | Compound | IC50
1 | Nc1nc(N2CCCCC2)c2ccccc2n1 | > 100 µM
2 | O=C(c1ccccc1)N1CCC(c2ncnc3ccccc23)CC1 | 1.4 µM
3 | Nc1nc(C2CCN(C(=O)Cc3ccccc3)CC2)c2ccccc2n1 | 2 µM
4 | CN1CCC(c2nc(N)nc3ccccc23)CC1 | > 100 µM
5 | COc1ccc(Cc2cc(C3CCN(C(=O)c4ccc(Cl)c(Cl)c4)CC3)nc(N)n2)cc1 | 0.7 µM
6 | Cc1cc(C2CCN(C(=O)c3ccccc3)CC2)nc(N)n1 | 9 µM
7 | COc1ccc(Cc2cc(C3CCN(C(=O)Cc4ccc(Cl)c(Cl)c4)CC3)nc(N)n2)cc1 | 2.1 µM
8 | COc1ccc(Cc2cc(C3CCN(C(=O)c4cccc(OC)c4)CC3)nc(N)n2)cc1 | 1.2 µM
9 | COc1ccc(Cc2cc(C3CCN(C(=O)Cc4ccc(Cl)cc4)CC3)nc(N)n2)cc1 | 2.4 µM
10 | Nc1nc(C2CCN(C(=O)CCc3ccccc3)CC2)c2ccccc2n1 | 6.3 µM
11 | Nc1nc(C2CCN(C3CCCCC3)CC2)c2ccccc2n1 | 53 µM
12 | Nc1nc(C2CCN(Cc3ccccc3)CC2)c2ccccc2n1 | 16 µM
13 | Nc1nc(Nc2ccccc2)c2ccccc2n1 | > 100 µM
14 | CCCCCCCC(=O)N1CCC(c2cc(Cc3ccc(OC)cc3)nc(N)n2)CC1 | 1.9 µM
15 | COc1ccc(Cc2cc(C3CCN(C(=O)c4cc(OC)cc(OC)c4)CC3)nc(N)n2)cc1 | 1 µM
16 | Nc1nc(C2CCNCC2)c2ccccc2n1 | 51 µM
17 | COc1ccc(Cc2cc(C3CCN(C(=O)Cc4ccc(OC)c(OC)c4)CC3)nc(N)n2)cc1 | 1.2 µM
18 | COc1ccc(Cc2cc(C3CCN(C(=O)c4ccc5c(c4)OCO5)CC3)nc(N)n2)cc1 | 0.6 µM
19 | O=C(c1ccccc1)N1CCC(c2nc(Cl)nc3ccccc23)CC1 | 1.4 µM
20 | COc1ccc(CC(=O)N2CCC(c3cc(Cc4ccc(OC)cc4)nc(N)n3)CC2)cc1 | 1.7 µM
21 | CC(=O)N1CCC(c2nc(N)nc3ccccc23)CC1 | 3.6 µM
22 | Nc1nc(C2CCN(CCc3ccccc3)CC2)c2ccccc2n1 | > 100 µM
23 | O=C(c1ccccc1)N1CCC(c2nc(O)nc3ccccc23)CC1 | 20 µM

Row | Compound | IC50
24 | COc1ccc(Cc2cc(C3CCN(C(=O)c4cccc(OC)c4OC)CC3)nc(N)n2)cc1 | 0.9 µM
25 | COc1ccc(Cc2cc(C3CCN(C(=O)C(C)(C)C)CC3)nc(N)n2)cc1 | 5.6 µM
26 | COc1ccc(Cc2cc(C3CCN(C(=O)c4ccc([N+](=O)[O-])cc4)CC3)nc(N)n2)cc1 | 0.7 µM
27 | COc1ccc(Cc2cc(C3CCN(C(=O)c4ccccc4OC)CC3)nc(N)n2)cc1 | 3.6 µM
28 | Nc1nc(C2CCN(C(=O)c3ccccc3)CC2)c2ccccc2n1 | 1.4 µM
29 | COc1ccc(Cc2cc(C3CCN(C(=O)c4ccccc4)CC3)nc(N)n2)cc1 | 1.4 µM
30 | COc1ccc(Cc2cc(C3CCN(C(=O)Cc4ccccc4)CC3)nc(N)n2)cc1 | 2.1 µM
31 | COc1ccc(Cc2cc(C3CCN(C(=O)Cc4ccc5c(c4)OCO5)CC3)nc(N)n2)cc1 | 1.8 µM
32 | Nc1nc(C2CCN(C(=O)c3ccc4c(c3)OCO4)CC2)c2ccccc2n1 | 4.5 µM
33 | CCCCC(=O)N1CCC(c2nc(N)nc3ccccc23)CC1 | 3 µM
34 | CCC(=O)N1CCC(c2cc(Cc3ccc(OC)cc3)nc(N)n2)CC1 | 4.9 µM
35 | COc1ccc(-c2c(C)nc(N)nc2C2CCN(C(=O)c3ccccc3)CC2)cc1 | 9.7 µM
36 | CCCC(=O)N1CCC(c2cc(Cc3ccc(OC)cc3)nc(N)n2)CC1 | 7.2 µM
37 | COc1ccc(Cc2cc(C3CCN(C(C)=O)CC3)nc(N)n2)cc1 | 6.1 µM
38 | CN1CCN(c2nc(N)nc3ccccc23)CC1 | > 100 µM
39 | COc1ccc(Cc2cc(C3CCN(C(=O)c4ccc(OC)c(OC)c4)CC3)nc(N)n2)cc1 | 0.9 µM
40 | COc1ccc(Cc2cc(C3CCN(C(=O)c4ccccc4[N+](=O)[O-])CC3)nc(N)n2)cc1 | 1.7 µM
41 | COc1ccc(Cc2cc(C3CCN(C(=O)c4ccc(OC)cc4)CC3)nc(N)n2)cc1 | 0.5 µM
42 | COc1ccc(Cc2cc(C3CCN(C(=O)c4cccc([N+](=O)[O-])c4)CC3)nc(N)n2)cc1 | 0.8 µM
43 | COc1ccc(Cc2cc(C3CCN(C(=O)c4ccc(Cl)cc4)CC3)nc(N)n2)cc1 | 0.6 µM
44 | Nc1nc(-c2ccccc2)cc(C2CCN(C(=O)c3ccccc3)CC2)n1 | 5.1 µM
45 | Nc1nc(C2CCN(C(=O)C3CCCCC3)CC2)c2ccccc2n1 | 2.5 µM
46 | CCCCCC(=O)N1CCC(c2cc(Cc3ccc(OC)cc3)nc(N)n2)CC1 | 1.5 µM
